# Test results taken from PubChem BioAssay AID2060501 (Molecular Pharmacology Branch, DTP, NCI, 2025).
# Test system: 282377-053-R-J1-PDC complex spheroids, viability
# Test: Anticancer human tumor 282377-053-R-J1-PDC patient-derived colon adenocarcinoma cell line growth inhibition [GQUAD]
# Settings: for IC50: curve of first compound; for viability, T/C: stronger effect = lower value
# How it was run: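 Tumor cells were grown as complex spheroids with HUVEC endothelial cells and mesenchymal stem cells as stroma. G-quadruplex stabilizers were combined with targeted agents over half-log dilutions from near the clinical Cmax, or from 10 microM.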
# [1] = second compound 0.0316 µM, first compound 0.0316 µM
# [2] = second compound 0.0316 µM, first compound 0.1 µM
# [3] = second compound 0.0316 µM, first compound 0.316 µM
# [4] = second compound 0.0316 µM, first compound 1 µM
# [5] = second compound 0.0316 µM, first compound 3.16 µM
# [6] = second compound 0.0316 µM, first compound 10 µM
# [7] = second compound 0.1 µM, first compound 0.0316 µM
# [8] = second compound 0.1 µM, first compound 0.1 µM
# [9] = second compound 0.1 µM, first compound 0.316 µM
# [10] = second compound 0.1 µM, first compound 1 µM
# [11] = second compound 0.1 µM, first compound 3.16 µM
# [12] = second compound 0.1 µM, first compound 10 µM
# [13] = second compound 0.316 µM, first compound 0.0316 µM
# [14] = second compound 0.316 µM, first compound 0.1 µM
# [15] = second compound 0.316 µM, first compound 0.316 µM
# [16] = second compound 0.316 µM, first compound 1 µM
# [17] = second compound 0.316 µM, first compound 3.16 µM
# [18] = second compound 0.316 µM, first compound 10 µM
# [19] = second compound 1 µM, first compound 0.0316 µM
# [20] = second compound 1 µM, first compound 0.1 µM
# [21] = second compound 1 µM, first compound 0.316 µM
# [22] = second compound 1 µM, first compound 1 µM
# [23] = second compound 1 µM, first compound 3.16 µM
# [24] = second compound 1 µM, first compound 10 µM
# [25] = second compound 3.16 µM, first compound 0.0316 µM
# [26] = second compound 3.16 µM, first compound 0.1 µM
# [27] = second compound 3.16 µM, first compound 0.316 µM
# [28] = second compound 3.16 µM, first compound 1 µM
# [29] = second compound 3.16 µM, first compound 3.16 µM
# [30] = second compound 3.16 µM, first compound 10 µM
# [31] = second compound 10 µM, first compound 0.0316 µM
# [32] = second compound 10 µM, first compound 0.1 µM
# [33] = second compound 10 µM, first compound 0.316 µM
# [34] = second compound 10 µM, first compound 1 µM
# [35] = second compound 10 µM, first compound 3.16 µM
# [36] = second compound 10 µM, first compound 10 µM
# 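Also: spheroids exposed to compounds for 7 days before readout.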
# 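For viability, T/C in this document: percent of vehicle DMSO control viability with 100% = untreated-like growth.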
compound,measurement,setting,value
COc1ncnc(C2CC2)c1-c1ncc2cnn(Cc3ccc(-c4nc(C(F)(F)F)cn4C(C)C)cc3)c2n1 + CN(C)c1ccc(Nc2c3ccc(NC(=O)CCN4CCCC4)cc3nc3cc(NC(=O)CCN4CCCC4)ccc23)cc1,IC50,second compound 0.0316 µM,> 10 µM
same,IC50,second compound 0.1 µM,> 10 µM
same,IC50,second compound 0.316 µM,> 10 µM
same,IC50,second compound 1 µM,> 10 µM
same,IC50,second compound 3.16 µM,> 10 µM
same,IC50,second compound 10 µM,> 10 µM
same,"viability, T/C",[1],108%
same,"viability, T/C",[2],83.7%
same,"viability, T/C",[3],95.1%
same,"viability, T/C",[4],76.5%
same,"viability, T/C",[5],88.1%
same,"viability, T/C",[6],66.2%
same,"viability, T/C",[7],97.1%
same,"viability, T/C",[8],90.2%
same,"viability, T/C",[9],102%
same,"viability, T/C",[10],87.6%
same,"viability, T/C",[11],81.4%
same,"viability, T/C",[12],76.7%
same,"viability, T/C",[13],88.3%
same,"viability, T/C",[14],95.8%
same,"viability, T/C",[15],86.6%
same,"viability, T/C",[16],78.5%
same,"viability, T/C",[17],87.6%
same,"viability, T/C",[18],77.8%
same,"viability, T/C",[19],84.5%
same,"viability, T/C",[20],83.4%
same,"viability, T/C",[21],93%
same,"viability, T/C",[22],75.4%
same,"viability, T/C",[23],79.6%
same,"viability, T/C",[24],80.8%
same,"viability, T/C",[25],92.1%
same,"viability, T/C",[26],85.8%
same,"viability, T/C",[27],88.2%
same,"viability, T/C",[28],86.4%
same,"viability, T/C",[29],75%
same,"viability, T/C",[30],77.7%
same,"viability, T/C",[31],85.4%
same,"viability, T/C",[32],66.8%
same,"viability, T/C",[33],74.8%
same,"viability, T/C",[34],66.3%
same,"viability, T/C",[35],94.8%
same,"viability, T/C",[36],82.3%
COc1ccc([C@@H](O)c2cc(-c3ncnc4cc(N5CCOCC5)ccc34)c(F)cc2Cl)nn1 + Cc1[nH]c2ccc(F)cc2c1-c1nc2c3cccnc3c3ncccc3c2[nH]1,IC50,second compound 0.0316 µM,> 10 µM
same,IC50,second compound 0.1 µM,> 10 µM
same,IC50,second compound 0.316 µM,> 10 µM
same,IC50,second compound 1 µM,> 10 µM
same,IC50,second compound 3.16 µM,0.432 µM
same,IC50,second compound 10 µM,< 0.0316 µM
same,"viability, T/C",[1],101%
same,"viability, T/C",[2],91.3%
same,"viability, T/C",[3],102%
same,"viability, T/C",[4],73.9%
same,"viability, T/C",[5],76.3%
same,"viability, T/C",[6],63.8%
same,"viability, T/C",[7],107%
same,"viability, T/C",[8],101%
same,"viability, T/C",[9],97.9%
same,"viability, T/C",[10],84.9%
same,"viability, T/C",[11],72%
same,"viability, T/C",[12],61.1%
same,"viability, T/C",[13],87.8%
same,"viability, T/C",[14],93%
same,"viability, T/C",[15],73.8%
same,"viability, T/C",[16],93.7%
same,"viability, T/C",[17],75.3%
same,"viability, T/C",[18],60.6%
same,"viability, T/C",[19],86.5%
same,"viability, T/C",[20],88.5%
same,"viability, T/C",[21],94.7%
same,"viability, T/C",[22],97.1%
same,"viability, T/C",[23],88.2%
same,"viability, T/C",[24],57.4%
same,"viability, T/C",[25],75.7%
same,"viability, T/C",[26],68.6%
same,"viability, T/C",[27],47.2%
same,"viability, T/C",[28],42.8%
same,"viability, T/C",[29],33.2%
same,"viability, T/C",[30],15.9%
same,"viability, T/C",[31],44.8%
same,"viability, T/C",[32],47.4%
same,"viability, T/C",[33],33.6%
same,"viability, T/C",[34],26.3%
same,"viability, T/C",[35],19.6%
same,"viability, T/C",[36],21.1%
CC(C)n1c(=O)n(C)c2cnc3cc(F)c(-c4ccc(OCCCN5CCCCC5)nc4)cc3c21 + Cc1cnc(CNC(=O)c2c(=O)c3ccc(N4CCCN(C)CC4)nc3n3c2sc2ccccc23)cn1,IC50,second compound 0.0316 µM,> 10 µM
same,IC50,second compound 0.1 µM,> 10 µM
same,IC50,second compound 0.316 µM,> 10 µM
same,IC50,second compound 1 µM,< 0.0316 µM
same,IC50,second compound 3.16 µM,< 0.0316 µM
same,IC50,second compound 10 µM,< 0.0316 µM
same,"viability, T/C",[1],101%
same,"viability, T/C",[2],76.5%
same,"viability, T/C",[3],102%
same,"viability, T/C",[4],76.5%
same,"viability, T/C",[5],94%
same,"viability, T/C",[6],86.5%
same,"viability, T/C",[7],84.7%
same,"viability, T/C",[8],80.2%
same,"viability, T/C",[9],81.3%
same,"viability, T/C",[10],90.2%
same,"viability, T/C",[11],83.7%
same,"viability, T/C",[12],72.6%
same,"viability, T/C",[13],69.2%
same,"viability, T/C",[14],61.9%
same,"viability, T/C",[15],70.9%
same,"viability, T/C",[16],76.2%
same,"viability, T/C",[17],78.5%
same,"viability, T/C",[18],64.2%
same,"viability, T/C",[19],47.4%
same,"viability, T/C",[20],48.3%
same,"viability, T/C",[21],49.9%
same,"viability, T/C",[22],46.6%
same,"viability, T/C",[23],56.8%
same,"viability, T/C",[24],67.7%
same,"viability, T/C",[25],48.9%
same,"viability, T/C",[26],45.8%
same,"viability, T/C",[27],51.6%
same,"viability, T/C",[28],43.7%
same,"viability, T/C",[29],53.5%
same,"viability, T/C",[30],45.9%
same,"viability, T/C",[31],44.6%
same,"viability, T/C",[32],33.5%
same,"viability, T/C",[33],39.9%
same,"viability, T/C",[34],45%
same,"viability, T/C",[35],40.6%
same,"viability, T/C",[36],23.5%
